Source: the NIST ThermoML archive (doi:10.1021/acs.jced.9b00441)
Numbers after ± are expanded uncertainties.

What was measured:
[1] = refractive index (Na D-line) (dimensionless); settings: 101.33 kPa, Liquid, Standard Abbe refractometry
[2] = Liquid; for mass density: 101.33 kPa, Vibrating tube method; for vapor or sublimation pressure: Closed cell (Static) method

Structure (SMILES) | refractive index ([1]; 293.15 K) | mass density ([2]; 293.15 K) | mass density ([2]; 298.15 K) | also measured
CC1CCCCC1 [methylcyclohexane] | 1.423 ± 0.001 | 769 ± 1 kg/m3 | – | –
C1CCCCC1 [cyclohexane] | 1.423 ± 0.001 | – | 775 ± 1 kg/m3 | –
CCCCCC [hexane] | – | – | 654 ± 1 kg/m3 | refractive index ([1]; 298.15 K): 1.375 ± 0.001
OCC(F)(F)C(F)(F)C(F)(F)F [2,2,3,3,4,4,4-heptafluorobutanol] | 1.264 ± 0.001 | 1580 ± 2 kg/m3 | – | –
CC1CCCO1 (stereo not given) [2-methyltetrahydrofuran] | – | 855 ± 1 kg/m3 | – | refractive index ([1]; 294.15 K): 1.405 ± 0.001
FC(F)=C(F)C(F)(F)F [hexafluoropropene] | – | – | – | vapor or sublimation pressure ([2]; 302.94 K): 838 ± 7 kPa; vapor or sublimation pressure ([2]; 312.91 K): 1094 ± 7 kPa; vapor or sublimation pressure ([2]; 322.94 K): 1407 ± 8 kPa; vapor or sublimation pressure ([2]; 332.94 K): 1783 ± 8 kPa; vapor or sublimation pressure ([2]; 342.92 K): 2225 ± 8 kPa
